Experimental data: patent publication US20260138978A1, “POSITIVE ALLOSTERIC MODULATORS OF THE MUSCARINIC ACETYLCHOLINE RECEPTOR M1” (Vanderbilt University, priority 2022, published 2026); call rule not given here

Tests used:
human mAChRM1 [1] = biological target: T1, human mAChRM1 (Homo sapiens, UniProt P11229); assay: mAChR M1 cell-based functional assay (calcium mobilization), agonist activity upon compound addition, Emax relative to acetylcholine maximum; details: for Agonist Activity Human M1 EC50 / EC50: calcium mobilization upon compound addition; for Emax: relative to the maximum for acetylcholine
T1 construct: host or cells: CHO-K1
T1 sequence (P11229 1-460): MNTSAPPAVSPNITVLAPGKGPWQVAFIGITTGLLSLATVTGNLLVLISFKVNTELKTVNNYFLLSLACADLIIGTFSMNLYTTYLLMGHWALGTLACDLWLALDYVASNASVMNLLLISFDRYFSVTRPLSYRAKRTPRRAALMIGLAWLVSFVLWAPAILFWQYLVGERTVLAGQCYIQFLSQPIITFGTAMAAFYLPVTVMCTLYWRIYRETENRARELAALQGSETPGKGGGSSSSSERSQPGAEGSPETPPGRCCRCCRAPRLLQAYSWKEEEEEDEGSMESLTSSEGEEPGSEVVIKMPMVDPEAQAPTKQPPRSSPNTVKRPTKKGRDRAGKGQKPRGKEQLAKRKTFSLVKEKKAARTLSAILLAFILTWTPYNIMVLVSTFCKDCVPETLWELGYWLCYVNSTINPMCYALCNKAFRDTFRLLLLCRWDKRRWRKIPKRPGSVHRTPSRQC
Text: Lack of agonist activity may be measured as weak or no increase in calcium fluorescence in mAChRM1-transfected CHO-K1 cells in the presence of the compound, compared to the response of equivalent CHO-K1 cells in the absence of the compound. Lack of mAChRM1 agonist activity may be determined as a percent response relative to acetylcholine. For example, a disclosed compound may have less than or equal to 30%, 25%, 20%, 15%, 10%, 5%, or 1% mAChRM1 agonist activity relative to acetylcholine. A disclosed compound may have substantially no mAChRM1 agonist activity. […] The absence of mAChRM1 agonist activity may contribute to the avoidance of cholinergic adverse effect liability.
(§1) Chinese hamster ovary (CHO-K1) cells stably expressing rat (r)M1 were purchased from the American Type Culture Collection and cultured according to their indicated protocol. CHO cells stably expressing human (h)M2, hM3, and hM5 were described previously (Levey, et al., 1991); hM1 and hM4 cDNAs were purchased from Missouri S&T cDNA Resource; rM4 cDNA was provided by T. I. Bonner (National Institutes of Health, Bethesda, MD). rM2 and rM3 were cloned from a rat brain cDNA library and sequence verified. hM1, rM2, rM3, hM4, and rM4 cDNAs were used to stably transfect CHO-K1 cells purchased from the American Type Culture Collection using Lipofectamine 2000. To make stable rM2, hM2, rM3, hM4. and rM4 cell lines for use in calcium mobilization assays, these cells also were stably transfected with a chimeric G-protein (Gqi5) (provided by B. R. Conklin, University of California, San Francisco) using Lipofectamine 2000. rM1, hM1, rM3, hM3, rM5, and hM5 cells were grown in Ham's F-12 medium containing 10% heat-inactivated fetal bovine serum (FBS), 20 mM HEPES, and 50 μg/mL G418 sulfate. rM2-Gqi5, hM2-Gqi5, and hM4-Gqi5 cells were grown in the same medium also containing 500 µg/mL Hygromycin B. Stable rM4-Gqi5 cells were grown in DMEM containing 10% heat-inactivated FBS, 20 mM HEPES, 400 μg/mL G418 sulfate, and 500 μg/mL Hygromycin B.
(§2) For high throughput measurement of agonist-evoked increases in intracellular calcium, CHO-K1 cells stably expressing muscarinic receptors were plated in growth medium lacking G418 and hygromycin at 15,000 cells/[…] in Greiner 384-well black-walled, tissue culture (TC)-treated, clear-bottom plates (VWR). Cells were incubated overnight at 37° C. and 5% CO2. The next day, cells were washed using an ELX 405 (BioTek) with four washes (80 μL) of assay buffer then aspirated to 20 μL. Next, 20 μL of 16 μM Fluo-4/acetoxymethyl ester (Invitrogen, Carlsbad, CA) prepared as a 2.3 mM stock in DMSO and mixed in a 1:1 ratio with 10% (w/v) Pluronic F-127 and diluted in assay buffer was added to the wells and the cell plates were incubated for 50 min at 37° C. and 5% CO2. Dye was removed by washing with the ELX 405 (four 80 μL washes of assay buffer) then aspirated to 20 μL. Compound master plates were formatted in an 11 point CR^c format (1:3 dilutions) in 100% DMSO with a starting concentration of 10 mM using the BRAVO liquid handler (Agilent). Test compound CRCs were then transferred to daughter plates (240 nL) using the Echo acoustic plate reformatter (Labcyte, Sunnyvale, CA) and then diluted into assay buffer ([…]) to a 2× stock using a Thermo Fisher Combi (Thermo Fisher Scientific, Waltham, MA).
Calcium flux was measured using the Functional Drug Screening System (FDSS) 6000 (Hamamatsu Corporation, Tokyo, Japan) as an increase in the fluorescent static ratio. Compounds were applied to cells (20 μL, 2×) using the automated system of the FDSS 6000 at 4 s into the 300 s protocol and the data were collected at 1 Hz. […] Agonist activity was analyzed as a concentration-dependent increase in calcium mobilization upon compound addition. Emax values for agonist activity are expressed relative to the maximum for acetylcholine. Positive allosteric modulator activity was analyzed as a concentration-dependent increase in the EC20 acetylcholine response. […]

human mAChRM1 [2] = biological target: T1, human mAChRM1; assay: mAChR M1 cell-based functional assay (calcium mobilization), positive allosteric modulator activity: increase in the EC20 acetylcholine response; details: for Emax: PAM mode; for EC50: increase in the EC20 acetylcholine response, read-out: PAM Activity Human M1 EC50
Text: as §1, §2
Calcium flux was measured using the Functional Drug Screening System (FDSS) 6000 (Hamamatsu Corporation, Tokyo, Japan) as an increase in the fluorescent static ratio. Compounds were applied to cells (20 μL, 2×) using the automated system of the FDSS 6000 at 4 s into the 300 s protocol and the data were collected at 1 Hz. […] Agonist activity was analyzed as a concentration-dependent increase in calcium mobilization upon compound addition. Emax values for agonist activity are expressed relative to the maximum for acetylcholine. Positive allosteric modulator activity was analyzed as a concentration-dependent increase in the EC20 acetylcholine response. Antagonist activity was analyzed as a concentration-dependent decrease in the EC80 acetylcholine response. Concentration-response curves were generated using a four-parameter logistical equation in XLfit curve fitting software (IDBS, Bridgewater, NJ) for Excel (Microsoft, Redmond, WA) or Prism (GraphPad Software, Inc., San Diego, CA).
Activity (EC50 and Emax) was determined in the mAChRM1 cell-based functional assay as described above and the data are shown in Table 16. The compound numbers correspond to the compound numbers used in Table 15.

SMILES	Agonist Activity Human M1 EC50 (human mAChRM1 [1])	Emax (human mAChRM1 [2]) [%]	EC50 (human mAChRM1 [2]) [µM]	EC50 (human mAChRM1 [1]) [µM]	Emax (human mAChRM1 [1]) [%]
Cn1cc2c(-c3cc(F)c(CN4Cc5cccc(F)c5C4=O)c(Cl)c3)ccc(C(C)(C)O)c2n1 [Compound 165, 2-(2-chloro-6-fluoro-4-(7-(2-hydroxypropan-2-yl)-2-methyl-2H-indazol-4-yl)benzyl)-7-fluoroisoindolin-1-one]	inactive	80	0.361		
Cc1cc(-c2cc(C(C)(C)O)c3nn(C)cc3c2)ccc1CN1Cc2ncccc2C1=O [Compound 35, 6-(4-(7-(2-hydroxypropan-2-yl)-2-methyl-2H-indazol-5-yl)-2-methylbenzyl)-6,7-dihydro-5H-pyrrolo[3,4-b]pyridin-5-one]	inactive	68	0.958		
Cn1cc2cc(-c3cc(F)c(CN4Cc5cccc(F)c5C4=O)c(Cl)c3)cc(C(C)(C)O)c2n1 [Compound 171, 2-(2-chloro-6-fluoro-4-(7-(2-hydroxypropan-2-yl)-2-methyl-2H-indazol-5-yl)benzyl)-7-fluoroisoindolin-1-one]	inactive	75	≥ 10		
Cc1cc(-c2ccc(C(C)(C)O)c3nn(C)cc23)cc(F)c1CN1Cc2cccnc2C1=O [Compound 123, 6-(2-fluoro-4-(7-(2-hydroxypropan-2-yl)-2-methyl-2H-indazol-4-yl)-6-methylbenzyl)-5,6-dihydro-7H-pyrrolo[3,4-b]pyridin-7-one]		84	0.124	≥ 10	34
COc1cc(-c2ccc(C(C)(C)O)cc2)cc(F)c1CN1Cc2cccnc2C1=O [Compound 119, 6-((3-fluoro-4′-(2-hydroxypropan-2-yl)-5-methoxy-[1,1′-biphenyl]-4-yl)methyl)-5,6-dihydro-7H-pyrrolo[3,4-b]pyridin-7-one]	inactive	58	≥ 10		
Cc1cc(-c2ccc(C(O)(C3CC3)C3CC3)c3nn(C)cc23)cc(F)c1CN1Cc2ncccc2C1=O [Compound 85, 6-(4-(7-(dicyclopropyl(hydroxy)methyl)-2-methyl-2H-indazol-4-yl)-2-fluoro-6-methylbenzyl)-6,7-dihydro-5H-pyrrolo[3,4-b]pyridin-5-one]	inactive	81	1.7		
C[C@@H](c1c(F)cc(-c2ccc(C(C)(C)O)c3nn(C)cc23)cc1F)N1Cc2ncccc2C1=O [Compound 98, (S)-6-(1-(2,6-difluoro-4-(7-(2-hydroxypropan-2-yl)-2-methyl-2H-indazol-4-yl)phenyl)ethyl)-6,7-dihydro-5H-pyrrolo[3,4-b]pyridin-5-one]	inactive	80	1.12		
[2H]C1([2H])c2ncccc2C(=O)N1Cc1cc(F)c(-c2ccc(C(C)(C)O)c3nn(C)cc23)cc1F [Compound 148, 6-(2,5-difluoro-4-(7-(2-hydroxypropan-2-yl)-2-methyl-2H-indazol-4-yl)benzyl)-6,7-dihydro-5H-pyrrolo[3,4-b]pyridin-5-one-7,7-d2]		89	0.206	≥ 10	27
Cc1cc(-c2ccc(C(C)(C)O)cc2)cc(F)c1CN1Cc2cccnc2C1=O [Compound 118, 6-((3-fluoro-4′-(2-hydroxypropan-2-yl)-5-methyl-[1,1′-biphenyl]-4-yl)methyl)-5,6-dihydro-7H-pyrrolo[3,4-b]pyridin-7-one]		67	1.65		

Further lines, results first:

Agonist Activity Human M1 EC50 (human mAChRM1 [1])	Emax (human mAChRM1 [2]) [%]	EC50 (human mAChRM1 [2]) [µM]	EC50 (human mAChRM1 [1]) [µM]	Emax (human mAChRM1 [1]) [%]	SMILES
inactive	68	1.45			CC(C)(O)c1ccc(-c2cc(F)c(CN3Cc4cccnc4C3=O)c(F)c2)cc1 [Compound 117, 6-((3,5-difluoro-4′-(2-hydroxypropan-2-yl)-[1,1′-biphenyl]-4-yl)methyl)-5,6-dihydro-7H-pyrrolo[3,4-b]pyridin-7-one]
inactive	79	1.46			CC(C)(O)c1ccc(-c2cc(F)c(CN3Cc4ncccc4C3=O)c(F)c2)cc1 [Compound 5, 6-((3,5-difluoro-4′-(2-hydroxypropan-2-yl)-[1,1′-biphenyl]-4-yl)methyl)-6,7-dihydro-5H-pyrrolo[3,4-b]pyridin-5-one]
inactive	50	≥ 10			Cn1cc2c(C(C)(C)O)cc(-c3cc(F)c(CN4Cc5ncccc5C4=O)c(F)c3)cc2n1 [Compound 19, 6-(2,6-difluoro-4-(4-(2-hydroxypropan-2-yl)-2-methyl-2H-indazol-6-yl)benzyl)-6,7-dihydro-5H-pyrrolo[3,4-b]pyridin-5-one]
inactive	47	≥ 10			Cc1cc(-c2cc(C(C)(C)O)c3cn(C)nc3c2)cc(F)c1CN1Cc2ncccc2C1=O [Compound 20, 6-(2-fluoro-4-(4-(2-hydroxypropan-2-yl)-2-methyl-2H-indazol-6-yl)-6-methylbenzyl)-6,7-dihydro-5H-pyrrolo[3,4-b]pyridin-5-one]
inactive	58	9.57			Cn1nc(-c2cc(F)c(CN3Cc4ncccc4C3=O)c(F)c2)c2ccc(C(C)(C)O)cc21 [Compound 52, 6-(2,6-difluoro-4-(6-(2-hydroxypropan-2-yl)-1-methyl-1H-indazol-3-yl)benzyl)-6,7-dihydro-5H-pyrrolo[3,4-b]pyridin-5-one]
	72	0.254	7.03	15	Cn1cc2c(-c3cc(F)c(CN4Cc5ncccc5C4=O)c(F)c3)ccc(C3(O)CCCC3)c2n1 [Compound 91, 6-(2,6-difluoro-4-(7-(1-hydroxycyclopentyl)-2-methyl-2H-indazol-4-yl)benzyl)-6,7-dihydro-5H-pyrrolo[3,4-b]pyridin-5-one]
